Where a name gives a salt, the structure may show the parent alone.
Assays:
[1] = biological target: T1, vascular smooth muscle (isolated thoracic aorta segments) (Rattus norvegicus, UniProt P22002); experiment: Calcium antagonism in vascular smooth muscle (isolated thoracic aorta segments from male spontaneously hypertensive rats); assay type: cell-based; conditions: for Kb: read-out: pA2 (Ca++ Antagonism) (converted); for activity as vascular calcium antagonist (in words): isolated SHR aorta
T1 construct: The excised aorta segment was mounted in a tissue bath containing modified Krebs solution; from tissue; host or cells: thoracic aorta segments of male spontaneously hypertensive rats
T1 sequence (P22002 whole entry): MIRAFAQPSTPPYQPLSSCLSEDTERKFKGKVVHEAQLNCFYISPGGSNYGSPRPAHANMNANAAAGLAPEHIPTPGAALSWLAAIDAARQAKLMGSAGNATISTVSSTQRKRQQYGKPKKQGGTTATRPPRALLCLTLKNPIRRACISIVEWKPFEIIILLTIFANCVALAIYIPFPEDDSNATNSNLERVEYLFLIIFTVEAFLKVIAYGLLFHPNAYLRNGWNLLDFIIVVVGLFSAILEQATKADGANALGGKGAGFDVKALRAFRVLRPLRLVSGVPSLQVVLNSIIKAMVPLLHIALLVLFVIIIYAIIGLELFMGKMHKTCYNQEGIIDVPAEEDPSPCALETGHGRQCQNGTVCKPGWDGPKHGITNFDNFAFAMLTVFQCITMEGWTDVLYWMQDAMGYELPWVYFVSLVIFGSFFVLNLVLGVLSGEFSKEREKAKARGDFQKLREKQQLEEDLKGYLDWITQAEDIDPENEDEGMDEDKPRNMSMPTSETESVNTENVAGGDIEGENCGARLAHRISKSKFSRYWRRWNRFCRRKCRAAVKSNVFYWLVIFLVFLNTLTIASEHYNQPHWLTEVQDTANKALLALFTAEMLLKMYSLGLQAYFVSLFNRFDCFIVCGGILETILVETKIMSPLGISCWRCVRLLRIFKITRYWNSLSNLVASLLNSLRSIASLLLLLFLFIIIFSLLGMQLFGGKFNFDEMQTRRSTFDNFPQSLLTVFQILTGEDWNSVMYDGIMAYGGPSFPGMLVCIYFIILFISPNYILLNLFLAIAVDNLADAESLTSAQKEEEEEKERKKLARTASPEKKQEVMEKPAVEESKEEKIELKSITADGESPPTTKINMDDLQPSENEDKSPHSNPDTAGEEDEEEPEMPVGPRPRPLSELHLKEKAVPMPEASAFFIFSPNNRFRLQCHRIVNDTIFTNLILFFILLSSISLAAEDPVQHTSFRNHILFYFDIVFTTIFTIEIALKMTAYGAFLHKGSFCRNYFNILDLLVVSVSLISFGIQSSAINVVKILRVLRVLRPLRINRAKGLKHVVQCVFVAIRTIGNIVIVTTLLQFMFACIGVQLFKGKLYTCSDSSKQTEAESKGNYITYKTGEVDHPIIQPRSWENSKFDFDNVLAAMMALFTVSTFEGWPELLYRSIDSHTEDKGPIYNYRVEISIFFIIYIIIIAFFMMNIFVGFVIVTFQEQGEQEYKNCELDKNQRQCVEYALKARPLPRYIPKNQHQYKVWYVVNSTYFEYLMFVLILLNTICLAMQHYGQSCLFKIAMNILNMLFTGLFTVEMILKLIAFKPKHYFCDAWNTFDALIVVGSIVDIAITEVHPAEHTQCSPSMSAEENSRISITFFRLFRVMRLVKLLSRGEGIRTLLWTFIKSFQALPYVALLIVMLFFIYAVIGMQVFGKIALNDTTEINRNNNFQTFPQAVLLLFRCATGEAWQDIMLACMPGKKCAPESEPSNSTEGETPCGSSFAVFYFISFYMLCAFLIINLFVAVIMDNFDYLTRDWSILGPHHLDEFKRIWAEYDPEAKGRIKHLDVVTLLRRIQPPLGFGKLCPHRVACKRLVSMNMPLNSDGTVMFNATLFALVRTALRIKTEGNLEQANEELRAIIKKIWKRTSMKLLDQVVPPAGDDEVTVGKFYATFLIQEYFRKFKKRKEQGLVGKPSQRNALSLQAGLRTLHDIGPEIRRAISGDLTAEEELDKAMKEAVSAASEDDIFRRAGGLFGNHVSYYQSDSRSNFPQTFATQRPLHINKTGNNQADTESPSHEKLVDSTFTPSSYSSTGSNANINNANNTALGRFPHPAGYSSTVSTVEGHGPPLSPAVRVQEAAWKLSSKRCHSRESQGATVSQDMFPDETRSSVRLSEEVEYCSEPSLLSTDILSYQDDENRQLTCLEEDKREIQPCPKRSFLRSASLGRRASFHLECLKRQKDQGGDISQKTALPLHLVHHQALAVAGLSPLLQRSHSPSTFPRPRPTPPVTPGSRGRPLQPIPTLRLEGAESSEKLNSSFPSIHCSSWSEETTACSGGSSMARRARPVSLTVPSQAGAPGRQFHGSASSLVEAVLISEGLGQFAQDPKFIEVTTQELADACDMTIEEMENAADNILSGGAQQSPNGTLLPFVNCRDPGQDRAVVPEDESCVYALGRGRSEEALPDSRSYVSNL
Method: Isolated thoracic aorta segments from the male spontaneously hypertensive rat were utilized in this test procedure.
The excised aorta segment was mounted in a tissue bath containing modified Krebs solution. After depolarization of the tissue with potassium (100 mM), calcium, in cumulative concentrations of 1×10^-3 M, 3.2×10^-3 M, and 1×10^-2 M was injected into the bath to produce vascular smooth muscle contraction. The developed tension (in grams) is measured and control dose-response values obtained. After one hour of incubation with a test compound at 1×10^-6 M concentration, the same doses of calcium ions were repeated. The log dose-response curves of the control and after treatment were analyzed by linear regression. The pA2 value was calculated as a measure of calcium antagonism of the test compound. See Van Rossum, J. M., Arch. Int. Pharmacodyn, 143, 299-330, 1963.
Calcium ions play an essential role in induction and maintenance of vascular smooth muscle contractility. In potassium depolarized vascular smooth muscle, calcium antagonists may block the entry of calcium ions into the cell or act by other mechanisms to inhibit the contractions induced by calcium ions. The inhibition of calcium ion - induced contraction of vascular smooth muscle is used to test compounds for vascular calcium antagonism. Cardiovascular diseases such as arrythmias, angina-pectoris, hypertension, and peripheral vascular disease may be casually related to abnormalities in cellular handling of calcium ions.

[2] = test system: spontaneously hypertensive rats; experiment: Anti-hypertensive activity in the unanesthetized spontaneously hypertensive rat (SHR) assay; assay type: in vivo; conditions: for Oral Activity (Blood Pressure Lowering): intragastrically 50 mg/kg; for minimal effective dose: Rattus norvegicus, read-out: Threshold Dose mg/kg intravenous; for minimal effective dose / Threshold Dose mg/kg intravenous: intravenous
Method: Male, unanesthetized spontaneously hypertensive rats, 11 to 16 weeks old were used in this test procedure. The compounds to be tested were administered intragastrically at a dose of 50 mg/kg or intraarterially/intravenously at a dose of 10 mg/kg.
Initial mean arterial blood pressure was measured directly via a previously implanted arterial catheter immediately before administration of the test compound. Blood pressure readings were made at 1, 2, 3, and 4 hours following administration of the test compound. […] Statistical comparisons were made using the paired Student's T test with two sided probability calculations.

[3] = 1×10^-6 M, one hour incubation, K+ (100 mM) depolarized SHR aorta

Compound	Kb [1, 3]	SHR mm Hg @ 10 mg/kg intravenous (blood pressure lowering) ([2]; SHR)	minimal effective dose ([2]; SHR)	also measured
COc1ccc(COc2ccc(CN3CCC(C(c4ccccc4)c4ccccc4)CC3)cc2)cc1 [Example 9, 4-(diphenylmethyl)-1-[[4-[(4-methoxyphenyl)methoxy]phenyl]methyl]piperidine]	41.7 nM			
Oc1ccc(CN2CCC(C(c3ccccc3)c3ccccc3)CC2)cc1 [Example 5, 4-[[4-(diphenylmethyl)-1-piperidinyl]methyl]phenol]				Oral Activity (Blood Pressure Lowering) ([2]; SHR): inactive
Clc1cccc(Cl)c1N=C1NCCN1 [Clonidine, reference compound]				activity in the hypertensive rat assay (in words) ([2]; rat, in vivo): active
Cc1ccc(COc2ccc(CN3CCC(C(c4ccccc4)c4ccccc4)CC3)cc2)cc1 [Example 7, 4-(diphenylmethyl)-1-[[4-[(4-methylphenyl)methoxy]phenyl]methyl] piperidine, 2-butendioate]		56 mm Hg	1 mg/kg	
C[C@](N)(Cc1ccc(O)c(O)c1)C(=O)O [Aldomet, reference compound]				activity in the hypertensive rat assay (in words) ([2]; SHR): active
CCOC(=O)c1cc(OCc2ccccc2)ccc1CN1CCC(C(c2ccccc2)c2ccccc2)CC1 [Example 2, ethyl 2-[[4-(diphenylmethyl)-1-piperidinyl]methyl]-5-(phenylmethoxy)benzoate]		inactive		pA2 (Ca++ Antagonism) [1, 3]: inactive
COc1ccc(CCN(C)CCCC(C#N)(c2ccc(OC)c(OC)c2)C(C)C)cc1OC (stereo not shown) [Verapamil, reference compound]				activity as vascular calcium antagonist (in words) [1]: active
COC(=O)C1=C(C)NC(C)=C(C(=O)OC)C1c1ccccc1[N+](=O)[O-] [Nifedipine, reference compound]				activity as vascular calcium antagonist (in words) [1]: active
COc1cc(CN2CCC(C(c3ccccc3)c3ccccc3)CC2)ccc1OCc1ccccc1 [Example 21]		18 mm Hg	0.1 mg/kg	Oral Activity (Blood Pressure Lowering) ([2]; SHR): active
NNc1nncc2ccccc12 [Apresoline, reference compound]				activity in the hypertensive rat assay (in words) ([2]; rat, in vivo): active
Clc1ccc(COc2ccc(CN3CCC(C(c4ccccc4)c4ccccc4)CC3)cc2)cc1Cl [Example 16, 1-[[4-[(3,4-dichlorophenyl)methoxy]phenyl]methyl]-4-(diphenylmethyl)piperidine, 2-butenedioate]		81 mm Hg	0.3 mg/kg	
C[C@H](CS)C(=O)N1CCC[C@H]1C(=O)O [Captopril, reference compound]				activity in the hypertensive rat assay (in words) ([2]; SHR): active
Clc1ccc(COc2ccc(CN3CCC(C(c4ccccc4)c4ccccc4)CC3)cc2)cc1 [Example 15, 1-[[4-[(4-chlorophenyl)methoxy]phenyl]methyl]-4-(diphenylmethyl)piperidine, 2-butenedioate]		89 mm Hg	1 mg/kg	
CC(C)(C)NC(=O)c1cc(OCc2ccccc2)ccc1CN1CCC(C(c2ccccc2)c2ccccc2)CC1 [Example 4, 2-[[4-(diphenylmethyl)-1-piperidinyl]methyl]-5-(phenylmethoxy)-N-(1,1-dimethylethyl) benzamide]	186 nM	29 mm Hg	0.3 mg/kg	
COc1ccc([C@@H]2Sc3ccccc3N(CCN(C)C)C(=O)[C@@H]2OC(C)=O)cc1 [Diltiazem, reference compound]				activity as vascular calcium antagonist (in words) [1]: active

More lines, main results first:

Kb [1, 3]	Compound	SHR mm Hg @ 10 mg/kg intravenous (blood pressure lowering) ([2]; SHR)	minimal effective dose ([2]; SHR)	also measured
30.2 nM	Fc1ccc(C(c2ccc(F)cc2)C2CCN(Cc3ccc(OCc4ccc(Cl)cc4Cl)cc3)CC2)cc1 [Example 12, 4-[bis(4-fluorophenyl)methyl]-1-[[4-[(2,4-dichlorophenyl)methoxy]phenyl]methyl] piperidine, hydrochloride]	79 mm Hg	0.1 mg/kg	
40.7 nM	Clc1ccc(COc2ccc(CN3CCC(C(c4ccccc4)c4ccccc4)CC3)cc2)c(Cl)c1 [Example 17, 1-[[4-[(2,4-dichlorophenyl)methoxy]phenyl]methyl]-4-(diphenylmethyl)piperidine]	inactive		Threshold Dose mg/kg intravenous ([2]; SHR): inactive
12.9 nM	Fc1cccc(C(c2cccc(F)c2)C2CCN(Cc3ccc(OCc4ccccc4)cc3)CC2)c1 [Example 13]	inactive		Threshold Dose mg/kg intravenous ([2]; SHR): inactive
26.9 nM	Fc1ccc(C(c2ccc(F)cc2)C2CCN(Cc3ccc(OCc4ccccc4)cc3)CC2)cc1 [Example 10, [bis(4-fluorophenyl)methyl]-1-[[4-(phenylmethoxy)phenyl]methyl]piperidine]	67 mm Hg	0.3 mg/kg	
18.2 nM	COc1ccc(COc2ccc(CN3CCC(C(c4ccc(F)cc4)c4ccc(F)cc4)CC3)cc2)cc1 [Example 8]	50 mm Hg	1 mg/kg	
44.7 nM	c1ccc(C(c2ccccc2)C2CCN(Cc3ccc(OCC4CCCCC4)cc3)CC2)cc1 [Example 20]	inactive		
25.7 nM	COc1ccc(CN2CCC(C(c3ccccc3)c3ccccc3)CC2)cc1OCc1ccccc1 [Example 3, 4-(diphenylmethyl)-1-[[[4-methoxy-3-(phenylmethoxy)phenyl]methyl]piperidine, ethanedioate]	79 mm Hg	0.3 mg/kg	
70.8 nM	Fc1ccccc1COc1ccc(CN2CCC(C(c3ccccc3)c3ccccc3)CC2)cc1 [Example 18, 4-(diphenylmethyl)-1-[[4-[(2-fluorophenyl)methoxy]phenyl]methyl]piperidine]	65 mm Hg	0.3 mg/kg	Oral Activity (Blood Pressure Lowering) ([2]; SHR): active
10.7 nM	c1ccc(COc2ccc(CN3CCC(C(c4ccccc4)c4ccccc4)CC3)cc2)cc1 [Example 6, 4-(diphenylmethyl)-1-[[4-(phenylmethoxy)phenyl]methyl] piperidine, hydrochloride]	88 mm Hg	0.3 mg/kg	
8.71 nM	Fc1ccc(C(c2ccc(F)cc2)C2CCN(Cc3ccc(OCc4ccc(Cl)cc4)cc3)CC2)cc1 [Example 11, 4-[bis(4-fluorophenyl)methyl]-1-[[4-[(4-chlorophenyl)methoxy]phenyl]methyl]piperidine, hydrobromide]	107 mm Hg	0.3 mg/kg	
457 nM	COc1ccc(CN2CCC(C(c3ccccc3)c3ccccc3)CC2)cc1OCc1ccc(Cl)cc1 [Example 19]	75 mm Hg	1 mg/kg	
38.9 nM	Clc1ccc(COc2ccc(CN3CCC(C(c4ccccc4)c4ccccc4)CC3)cc2)cc1 [Example 14, 1-[[4-[(4-chlorophenyl)methoxy]phenyl]methyl]-4-(diphenylmethyl)piperidine]			Oral Activity (Blood Pressure Lowering) ([2]; SHR): active

Source: patent publication US4650874A, “N-(aralkoxybenzyl)-4(benzhydryl) piperidines” (G. D. Searle & Co., priority 1984, dated 1987)
